Measurements reported in patent publication US20260207632A1, “C[…] THERAPY” (KINGDOM THERAPEUTICS LIMITED, priority 2022, published 2026).

Columns and labels:
rat VPA model of autism [1] = assay: Open field behaviour (P31-32): locomotor activity, centre crossing, circling, self-grooming in VPA rat model; assay type: in vivo; design: key to open field (spontaneous LMA on day 1) / open field (habituation LMA on day 2) / centre crossing / centre time / Circling / Grooming: +: improvement; Ø: no change
Procedure: (§1) In the first study, a sub-chronic 8-day dosing schedule was employed with the test compound CBD administered alone (10, 30 and 60 mg/kg, p.o. VPA/CBD; dose volume 5 ml/kg). Control animals were administered sterile saline (0.9% w/v, i.p.) in utero and the vehicle control (ethanol: Kolliphor HS-15:0.9% saline (1:1:18, v/v/v) p.o. VEH/VEH). The test compound and vehicle control were administered to the animals once daily for 7 days prior to, and once again on each day of behavioural assessment, 60 minutes prior to test which consisted of a battery of behavioural paradigms: P30 social play and bottle brush test, P31-32 open field exploratory behaviour. A reference positive control, the atypical antipsychotic risperidone (0.125 mg/kg, i.p., once per day for 8 days prior to and for duration of behavioural testing), was included in study one for comparison. Subsequent to behavioural analysis the effect of CBD on gastrointestinal permeability was evaluated four hours following oral administration of fluorescein isothiocyanate-labelled dextran measured in plasma on postnatal day 33. On postnatal day 34, 60 minutes post a final treatment with the test agents, animals were humanely euthanised and samples collected to evaluate inflammatory biomarkers, gastrointestinal function and histology. 5 In the second study, the sub-optimal dose of CBD (30 mg/kg, p.o.) was evaluated in combination with administration of THC at increasing concentration (0.75, 1.5 and 3 mg/kg, p.o. VPA/CBD+THC). Comparison was made to CBD administered alone at the sub-optimal and effective doses (30 and 60 mg/kg, p.o.) and to vehicle controls as per study one. Behavioural and gastrointestinal readouts were examined as per study one with terminal samples collected on the final day of the experiment.
Following eight days treatment with the test compound animals were scored for locomotor activity and exploratory behaviour in two 10-minute trials within an open field arena over two days, a protocol widely used at Berand and allows to distinguish between day 1 spontaneous locomotor activity and day 2 locomotor activity following habituation (pre-exposure to the arena on day 1). Each day the animals were placed into a […] black Perspex box with 30 cm side walls, under low light and monitored via remote video capture for spontaneous activity. Linked to Ethovision XT image analysis software these videos were analysed for total distance moved and number and duration of centre zone crossings as an indication of hyperactivity and anxiety-like behaviour. Manual scoring of the videos was conducted (blinded to treatment group) to determine frequency of circling behaviour (number of 360 degree turns) and duration of self-grooming (n=8).

rat VPA model of autism [2] = assay: Gastrointestinal permeability (P33), FITC-dextran in plasma, VPA rat model; assay type: in vivo; design: key to gastrointestinal permeability: +: improvement; Ø: no change
Procedure: as §1
This assay is an indirect measure of total intestinal permeability. Animals are given an oral gavage of a fluorescently labelled small molecule (FITC-dextran), and at a subsequent timepoint the difference in fluorescence pre- and post-gavage is measured in plasma (Thevaranjan et al., 2017). Prior to gavage, a 50 μl sample of blood was collected by tail vein puncture. Animals then received 500 μl of 80 mg/ml FITC dextran (4 kDa Merck Ireland) by oral gavage and four hours later a second tail vein blood sample was collected. Tail vein blood sampling is facilitated through use of local anaesthetic EMLA cream following sterilisation of the tail. Blood samples were treated with 15% v/v acid-citrate-dextrose solution as an anticoagulant (38 mM citric acid, 107 mM sodium citrate, 136 mM dextrose), then mixed thoroughly by inversion and centrifuged at 5,000 rpm for 10 minutes. The plasma supernatant was transferred to microfuge tubes stored protected from light at 4° C. Each pre- and post-test plasma sample was diluted 1:5 in 1×PBS and a 100 μl aliquot was transferred to a 96-well plate. Readings of relative fluorescence units by a spectrophotometer were measured in duplicate and averaged. Fluorescence was determined at 530 nm with excitation at 485 nm. Permeability was expressed as relative fluorescence units between the groups being compared, determined by subtracting the PBS blank fluorescence from all samples and then subtracting the post-gavage fluorescence from the pre-gavage fluorescence. Treatment groups were prepared and analysed according to a blocked design to prevent bias.

[3] = cohort two, CBD 30 mg/kg, THC 0 mg/kg p.o.
[4] = cohort two, CBD 60 mg/kg, THC 0 mg/kg p.o.
[5] = study one, CBD 60 mg/kg, vs VPA/VEH
[6] = cohort one, risperidone 0.125 mg/kg i.p.
[7] = study one, risperidone 0.125 mg/kg i.p.

C=C(C)[C@@H]1CCC(C)=C[C@H]1c1c(O)cc(CCCCC)cc1O [CBD, cannabidiol]
Circling (rat VPA model of autism [1]; cohort one, CBD 10 mg/kg p.o.): Ø
Grooming (rat VPA model of autism [1]; cohort one, CBD 10 mg/kg p.o.): Ø
centre crossing (rat VPA model of autism [1]; cohort one, CBD 10 mg/kg p.o.): Ø
centre time (rat VPA model of autism [1]; cohort one, CBD 10 mg/kg p.o.): Ø
open field (habituation LMA on day 2) (rat VPA model of autism [1]; cohort one, CBD 10 mg/kg p.o.): Ø
open field (spontaneous LMA on day 1) (rat VPA model of autism [1]; cohort one, CBD 10 mg/kg p.o.): Ø
Circling (rat VPA model of autism [1]; cohort one, CBD 30 mg/kg p.o.): Ø
Grooming (rat VPA model of autism [1]; cohort one, CBD 30 mg/kg p.o.): Ø
centre crossing (rat VPA model of autism [1]; cohort one, CBD 30 mg/kg p.o.): Ø
centre time (rat VPA model of autism [1]; cohort one, CBD 30 mg/kg p.o.): Ø
open field (habituation LMA on day 2) (rat VPA model of autism [1]; cohort one, CBD 30 mg/kg p.o.): Ø
open field (spontaneous LMA on day 1) (rat VPA model of autism [1]; cohort one, CBD 30 mg/kg p.o.): Ø
Circling (rat VPA model of autism [1]; cohort one, CBD 60 mg/kg p.o.): +
Grooming (rat VPA model of autism [1]; cohort one, CBD 60 mg/kg p.o.): +
centre crossing (rat VPA model of autism [1]; cohort one, CBD 60 mg/kg p.o.): Ø
centre time (rat VPA model of autism [1]; cohort one, CBD 60 mg/kg p.o.): Ø
open field (habituation LMA on day 2) (rat VPA model of autism [1]; cohort one, CBD 60 mg/kg p.o.): +
open field (spontaneous LMA on day 1) (rat VPA model of autism [1]; cohort one, CBD 60 mg/kg p.o.): +
Circling (rat VPA model of autism [1]; [3]): +
Grooming (rat VPA model of autism [1]; [3]): Ø
centre crossing (rat VPA model of autism [1]; [3]): Ø
centre time (rat VPA model of autism [1]; [3]): Ø
open field (habituation LMA on day 2) (rat VPA model of autism [1]; [3]): Ø
open field (spontaneous LMA on day 1) (rat VPA model of autism [1]; [3]): Ø
Circling (rat VPA model of autism [1]; [4]): +
Grooming (rat VPA model of autism [1]; [4]): +
centre crossing (rat VPA model of autism [1]; [4]): +
centre time (rat VPA model of autism [1]; [4]): +
open field (habituation LMA on day 2) (rat VPA model of autism [1]; [4]): +
open field (spontaneous LMA on day 1) (rat VPA model of autism [1]; [4]): +
increase in circling behaviour, day 2 (rat VPA model of autism [1]; study one, CBD 60 mg/kg): significantly attenuated
increase in self grooming, day 2 (rat VPA model of autism [1]; study one, CBD 60 mg/kg): reversed
increase in locomotor activity (distance travelled), day one (rat VPA model of autism [1]; [5]): significantly prevented
increase in locomotor activity (distance travelled), day two (rat VPA model of autism [1]; [5]): significantly prevented
increase in circling and grooming behaviour, day one (rat VPA model of autism [1]; study one, CBD (10, 30 and 60 mg/kg)): without effect
increase in circling behaviour, day 2 (rat VPA model of autism [1]; study two, CBD 30 mg/kg): without effect
increase in circling, day one (rat VPA model of autism [1]; study two, CBD 30 mg/kg): significantly prevented
increase in locomotor activity (distance travelled), day one (rat VPA model of autism [1]; study two, CBD 30 mg/kg): without effect
increase in locomotor activity (distance travelled), day two (rat VPA model of autism [1]; study two, CBD 30 mg/kg): without effect
increase in self grooming, day 2 (rat VPA model of autism [1]; study two, CBD 30 mg/kg): without effect
increase in circling behaviour, day 2 (rat VPA model of autism [1]; study two, CBD 60 mg/kg): significantly attenuated
increase in circling, day one (rat VPA model of autism [1]; study two, CBD 60 mg/kg): significantly prevented
increase in locomotor activity (distance travelled), day one (rat VPA model of autism [1]; study two, CBD 60 mg/kg): significantly prevented
increase in locomotor activity (distance travelled), day two (rat VPA model of autism [1]; study two, CBD 60 mg/kg): significantly prevented
increase in self grooming, day 2 (rat VPA model of autism [1]; study two, CBD 60 mg/kg): reversed
gastrointestinal permeability (rat VPA model of autism [2]; cohort one, CBD 10 mg/kg p.o.): Ø
gastrointestinal permeability (rat VPA model of autism [2]; cohort one, CBD 30 mg/kg p.o.): +
gastrointestinal permeability (rat VPA model of autism [2]; cohort one, CBD 60 mg/kg p.o.): +
gastrointestinal permeability (rat VPA model of autism [2]; [3]): Ø
gastrointestinal permeability (rat VPA model of autism [2]; [4]): +
increase in FITC dextran fluorescence (gastrointestinal permeability) (rat VPA model of autism [2]; study one, CBD 30 mg/kg, vs VPA/VEH): significantly prevented
increase in FITC dextran fluorescence (gastrointestinal permeability) (rat VPA model of autism [2]; [5]): significantly prevented
increase in FITC dextran fluorescence (gastrointestinal permeability) (rat VPA model of autism [2]; study two, CBD 30 mg/kg): without effect
increase in FITC dextran fluorescence (gastrointestinal permeability) (rat VPA model of autism [2]; study two, CBD 60 mg/kg): significantly prevented

Cc1nc2n(c(=O)c1CCN1CCC(c3noc4cc(F)ccc34)CC1)CCCC2 [Risperidone, risperidone]
Circling (rat VPA model of autism [1]; [6]): Ø
Grooming (rat VPA model of autism [1]; [6]): Ø
centre crossing (rat VPA model of autism [1]; [6]): Ø
centre time (rat VPA model of autism [1]; [6]): Ø
open field (habituation LMA on day 2) (rat VPA model of autism [1]; [6]): +
open field (spontaneous LMA on day 1) (rat VPA model of autism [1]; [6]): +
circling and self-grooming, day one or two (rat VPA model of autism [1]; [7]): did not reach significance
increased locomotor activity, day two (rat VPA model of autism [1]; [7]): significantly reduced
locomotor hyperactivity, day one (rat VPA model of autism [1]; [7]): significantly reduced
gastrointestinal permeability (rat VPA model of autism [2]; [6]): Ø
increase in FITC dextran fluorescence (gastrointestinal permeability) (rat VPA model of autism [2]; [7]): without effect
